The values below come from patent publication US8106055B2, “Substituted amide compounds” (Gruenenthal GmbH, priority 2007, dated 2012).

The target in one test is T1, human μ opiate receptor (Homo sapiens, UniProt P35372).
T1 construct: purchased PerkinElmer Life Sciences, Zaventem, Belgium RB-HOM; host or cells: CHO-K1 cells (membrane preparation)
The test is described as follows: Affinity for the human μ opiate receptor ([3H]-naloxone displacement, CHO-K1 receptor membrane preparation, SPA). The format is binding. Particulars: test concentration of 1 μM; read-out: μ (binding on the μ opioid receptor, % inhibition). The procedure, abridged: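 Readout is percent displacement of [3H]-naloxone (1 nmol/l) from human μ receptor in CHO-K1 membranes, measured at 1 μmol/l compound. Incubation runs 90 minutes at room temperature with WGA-SPA beads in Tris-HCl/BSA buffer; non-specific binding is defined with 100 μmol/l naloxone.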

In test [1] the target is T2, serotonin (5-HT) reuptake (Rattus norvegicus, UniProt P31652).
T2 construct: synaptosomes are freshly isolated from areas of the rat brain; from tissue; host or cells: rat brain synaptosomes (P2 fraction)
The test is described as follows: Inhibition of serotonin (5HT) reuptake in synaptosomes from rat brain. The format is biochemical. Particulars: test concentration of 10 μM; read-out: 5-HT (inhibition of reuptake of serotonin, % inhibition). The method, then:
Binding data of the compounds on the μ opioid receptor and data on the inhibition of reuptake of serotonin (5-HT) are given in Table 1. The data for the μ receptor were measured at a test concentration of 1 μM, and those for the serotonin reuptake at 10 μM. The values are stated in % inhibition.
Inhibition of Serotonin (5HT) Reuptake
In order to be able to carry out these in vitro studies, synaptosomes are freshly isolated from areas of the rat brain. In each case a so-called “P2” fraction prepared in accordance with the instructions of Gray and Whittaker (E. G. Gray and V. P. Whittaker (1962) J. Anat. 76, 79-88) is prepared. For the NA uptake, these vesicular particles are isolated from the hypothalamus of male rat brains.
A detailed description of the method can be found in the literature (M. Ch. Frink, H.-H. Hennies, W. Englberger, M. Haurand and B. Wilffert (1996) Arzneim.-Forsch./Drug Res. 46 (III), 11, 1029-1036).

Test [2] deals with T3, human bradykinin 1 receptor (B1R) (Homo sapiens, UniProt P46663).
T3 construct: expressed in transfected cells; host or cells: CHO K1 cells
T3 sequence (P46663 1-353): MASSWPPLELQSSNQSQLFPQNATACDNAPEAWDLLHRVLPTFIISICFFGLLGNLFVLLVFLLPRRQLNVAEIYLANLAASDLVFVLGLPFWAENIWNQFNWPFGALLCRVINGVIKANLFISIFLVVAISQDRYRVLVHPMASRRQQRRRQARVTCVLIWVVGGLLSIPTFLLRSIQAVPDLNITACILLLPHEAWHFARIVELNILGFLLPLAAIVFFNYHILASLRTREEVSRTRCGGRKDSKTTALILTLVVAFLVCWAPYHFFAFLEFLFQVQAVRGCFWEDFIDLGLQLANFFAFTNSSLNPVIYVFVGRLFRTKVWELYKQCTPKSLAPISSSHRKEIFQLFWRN
The test is described as follows: Functional investigation on the human bradykinin 1 receptor (B1R), Ca2+ FLIPR assay in CHO K1 hB1R cells. The format is cell-based. The procedure, abridged: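 Stably transfected CHO K1 cells loaded with Fluo-4; FLIPR Ca2+ fluorescence peak (ex 488/em 540 nm). Compound added first (agonism vs Lys-Des-Arg9-bradykinin ≥50 nM human, Des-Arg9-bradykinin 10 μM rat), then after 10-20 min agonist at EC80; antagonism as % inhibition, IC50 from concentration series, n=2-3, N≥2.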

The mark [3] stands for this setting: CHO-K1, B1R antagonism human, test substance 10 μM, Ca2+ FLIPR, CHO K1 hB1R cells, read-out: B1R Ant. h [10 μM] % Inhibition.
Setting [4] is: CHO-K1, read-out: B1R Ant. h [10 μM] % Inhibition.

Structures are written as SMILES. Read-outs that look alike come from different tables or passages of the source.

T2 sequence (P31652 whole entry): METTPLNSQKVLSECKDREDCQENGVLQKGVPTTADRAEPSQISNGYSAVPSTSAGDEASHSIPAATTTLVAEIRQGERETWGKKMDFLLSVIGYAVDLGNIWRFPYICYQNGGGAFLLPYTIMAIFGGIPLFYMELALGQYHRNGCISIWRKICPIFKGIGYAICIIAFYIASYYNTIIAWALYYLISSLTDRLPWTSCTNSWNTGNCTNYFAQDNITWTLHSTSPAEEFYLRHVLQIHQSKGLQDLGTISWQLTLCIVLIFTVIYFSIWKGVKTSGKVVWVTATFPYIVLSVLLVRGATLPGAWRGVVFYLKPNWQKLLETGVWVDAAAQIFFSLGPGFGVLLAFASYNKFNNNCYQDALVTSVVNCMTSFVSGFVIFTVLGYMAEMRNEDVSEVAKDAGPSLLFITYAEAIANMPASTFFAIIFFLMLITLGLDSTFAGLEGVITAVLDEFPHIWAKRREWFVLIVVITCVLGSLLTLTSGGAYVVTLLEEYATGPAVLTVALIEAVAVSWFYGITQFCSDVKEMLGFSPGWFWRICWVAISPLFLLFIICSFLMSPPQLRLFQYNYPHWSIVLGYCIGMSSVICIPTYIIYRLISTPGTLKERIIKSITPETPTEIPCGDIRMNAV
T1 sequence (P35372 whole entry): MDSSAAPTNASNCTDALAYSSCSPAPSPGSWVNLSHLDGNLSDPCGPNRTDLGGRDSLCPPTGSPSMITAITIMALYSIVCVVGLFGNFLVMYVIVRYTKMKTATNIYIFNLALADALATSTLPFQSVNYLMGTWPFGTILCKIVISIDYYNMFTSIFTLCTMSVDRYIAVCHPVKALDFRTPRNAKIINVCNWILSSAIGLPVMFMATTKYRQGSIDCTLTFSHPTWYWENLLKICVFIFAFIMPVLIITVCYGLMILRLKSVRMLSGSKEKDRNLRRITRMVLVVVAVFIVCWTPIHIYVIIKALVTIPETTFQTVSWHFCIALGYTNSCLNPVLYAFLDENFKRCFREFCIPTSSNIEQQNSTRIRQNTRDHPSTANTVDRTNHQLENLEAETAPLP

The inhibition is the relative decrease from the control value, in per cent. On to `COc1ccc(S(=O)(=O)N2CCCCC2CCOCC(=O)NC2CCC(C(c3ccccc3)N(C)C)CC2)cc1` (stereo not drawn) [Example 3, N-(4-((dimethylamino)(phenyl)methyl)cyclohexyl)-2-(2-(1-(4-methoxyphenylsulfonyl)piperidin-2-yl)ethoxy)acetamide], for which, at human μ opiate receptor, the inhibition at 1 µM was determined as 99%. Besides, the figures for the inhibition at 10 µM in test [1] and in test [2] (setting [3]) were 92% and 69%, respectively.
For `CN(C)C(c1ccccc1)C1CCC(NC(=O)COCC2CCCCN2S(=O)(=O)c2cccc(Cl)c2Cl)CC1` (stereo not drawn) [Example 24, 2-((1-(2,3-dichlorophenylsulfonyl)piperidin-2-yl)methoxy)-N-(4-((dimethylamino)(phenyl)methyl)cyclohexyl)acetamide], in that order: 97%, 67% and 99%.
For `COc1cc(C)c(S(=O)(=O)N(C)CCOCC(=O)NCC2CCC(C(c3ccccc3)N(C)C)CC2)c(C)c1C` (stereo not drawn) [Example 40, N-((4-((dimethylamino)(phenyl)methyl)cyclohexyl)methyl)-2-(2-(4-methoxy-N,2,3,6-tetramethylphenylsulfonamido)ethoxy)acetamide], in that order: 96%, 84% and 99%.
For the molecule `CN(C)C(c1ccccc1)C1CCC(NC(=O)COCCN(Cc2ccccc2)S(=O)(=O)c2ccccc2)CC1` (stereo not drawn) [Example 51, 2-(2-(N-benzylphenylsulfonamido)ethoxy)-N-(4-((dimethylamino)(phenyl)methyl)cyclohexyl)acetamide], at human μ opiate receptor, the inhibition at 1 µM worked out at 95%. Moreover, the inhibition at 10 µM in test [1] worked out at 88%; in test [2] (setting [4]) it was 9%.
In the case of `CN(C)C(c1ccccc1)C1CCC(NC(=O)COCC2CCCCN2S(=O)(=O)c2ccc(Cl)cc2)CC1` (stereo not drawn) [Example 95, 2-((1-(4-chlorophenylsulfonyl)piperidin-2-yl)methoxy)-N-(4-((dimethylamino)(phenyl)methyl)cyclohexyl)acetamide], at human μ opiate receptor, the inhibition at 1 µM was 91%. The inhibition at 10 µM came out at 84% in test [1] and 22% in test [2] (setting [3]).
On to `CN(C)C(c1ccccc1)C1CCC(NC(=O)COC2CCCN(S(=O)(=O)c3ccccc3)C2)CC1` (stereo not drawn) [Example 109, N-(4-((dimethylamino)(phenyl)methyl)cyclohexyl)-2-(1-(phenylsulfonyl)piperidin-3-yloxy)acetamide], for which the inhibition at 1 µM on human μ opiate receptor was 89%. Further, the figures for the inhibition at 10 µM in test [1] and in test [2] (setting [3]) were 87% and 26%, respectively.
`CN(C)C(c1ccccc1)C1CCC(NC(=O)COCCC2CCN(S(=O)(=O)c3ccccc3)CC2)CC1` (stereo not drawn) [Example 124, N-(4-((dimethylamino)(phenyl)methyl)cyclohexyl)-2-(2-(1-(phenylsulfonyl)piperidin-4-yl)ethoxy)acetamide]: on human μ opiate receptor, the inhibition at 1 µM stood at 87%. For the same molecule, the values for the inhibition at 10 µM in test [1] and in test [2] (setting [3]) were 89% and 9%, respectively.
Consider `COc1ccc(S(=O)(=O)N2CCCCC2COCC(=O)NC2CCC(C(c3ccccc3)N(C)C)CC2)cc1` (stereo not drawn) [Example 154, N-(4-((dimethylamino)(phenyl)methyl)cyclohexyl)-2-((1-(4-methoxyphenylsulfonyl)piperidin-2-yl)methoxy)acetamide], for which the inhibition at 1 µM on human μ opiate receptor was found to be 83%. Also, the inhibition at 10 µM in test [1] amounted to 90%; in test [2] (setting [4]) it was 69%.
As for `COc1cc(C)c(S(=O)(=O)N(C)CCOCC(=O)NC2CCC(C(c3cccc(F)c3)N(C)C)CC2)c(C)c1C` (stereo not drawn) [Example 159, N-(4-((dimethylamino)(3-fluorophenyl)methyl)cyclohexyl)-2-(2-(4-methoxy-N,2,3,6-tetramethylphenylsulfonamido)ethoxy)acetamide], the inhibition at 1 µM at human μ opiate receptor worked out at 85%. The inhibition at 10 µM is 72% in test [1] and 91% in test [2] (setting [3]).
